ChEMBL document CHEMBL1287705, “Design and synthesis of threading intercalators to target DNA” (Bioorg Med Chem Lett, 2010)
pIC50: −log10 of the molar value.

Assays:
HL-60 [1] = assay: Cytotoxicity against human HL60 cells by MTS assay; assay type: functional, cell-based
HL-60 [2] = assay: Growth inhibition of human HL60 cells; assay type: functional
Calf thymus DNA = assay: Displacement of ethidium bromide from calf thymus DNA by fluorometric assay; assay type: nucleic-acid assay; conditions: Bos taurus

## CN(C)CCNC(=O)c1cccc2c(NCCCCCCNS(=O)(=O)c3cccc4c(N(C)C)cccc34)c3ccccc3nc12
HL-60 [1]
  pIC50: 5.68

## CN(C)CCNC(=O)c1ccc2c(NCCCCCCNS(=O)(=O)c3cccc4cccnc34)c3ccccc3nc2c1
HL-60 [1]
  pIC50: 4.45

## Nc1c2ccccc2nc2ccccc12 [AMINACRINE]
HL-60 [2]
  GI50: 2 µM
Calf thymus DNA
  Kapp: 1.8 ×10⁶ /M
  logKA: 6.26

## CN(C)CCNC(=O)c1ccc2c(NCCCCCCNS(=O)(=O)c3cccc4c(N(C)C)cccc34)c3ccccc3nc2c1
HL-60 [1]
  pIC50: 4.57

## CN(C)CCNC(=O)c1ccc2c(NCCCCCCN)c3ccccc3nc2c1
HL-60 [1]
  pIC50: 4.42
Calf thymus DNA
  Kapp: 9.83 ×10⁶ /M

## CN(C)CCNC(=O)c1cccc2c(NCCCCCCNC(=O)c3ccc4ccccc4n3)c3ccccc3nc12
HL-60 [1]
  pIC50: 4.65

## CN(C)CCNC(=O)c1ccc2c(NCCCCCCNC(=O)c3cccc4ccccc34)c3ccccc3nc2c1
HL-60 [1]
  pIC50: 4.23

## CN(C)CCNC(=O)c1cccc2c(NCCCCCCN)c3ccccc3nc12
HL-60 [1]
  pIC50: 6.35
Calf thymus DNA
  Kapp: 3.1 ×10⁷ /M

## CN(C)CCNC(=O)c1cccc2c(NCCCCCCNS(=O)(=O)c3cccc4cccnc34)c3ccccc3nc12
HL-60 [1]
  pIC50: 4.80

## CN(C)CCNC(=O)c1cccc2c(NCCCCCCNC(=O)c3cccc4ccccc34)c3ccccc3nc12
HL-60 [1]
  pIC50: 5.46

## CN(C)CCNC(=O)c1ccc2c(NCCCCCCNC(=O)c3ccc4ccccc4n3)c3ccccc3nc2c1
HL-60 [1]
  pIC50: 4.51
